Values of other authors as cited in patent publication US6706285B1, “Enteric coated formulation of a benzimidazole derivative and method for preparation thereof” (Hanms Pharm. Co., Ltd., priority 1998, dated 2004).
Read-outs that look alike come from different tables or passages of the source.

half-life (acidic condition at a pH of 4 or less): less than 10 minutes
half-life (at a pH of 11): about 300 days
half-life (neutral condition at a pH of about 7.0): about 14 hours
SMILES: COc1ccc2[nH]c([S+]([O-])Cc3ncc(C)c(OC)c3C)nc2c1 (stereo not drawn) [omeprazole, 5-methoxy-2[[(4-methoxy-3,5-dimethyl-2-pyridinyl)methyl]sulfinyl]-1H-benzimidazole]
